Laboratory results reported in article PMC5155509 (ChemMedChem, 2016).
Values after ≈ are worked out from the molar mass of the structure shown. Values joined by “and” are separate entries in the source; they are usually repeats but may differ in a detail not shown here. Equal entries are not always repeated. Where two headings read alike, the source gives them in different places.

Experiments:
B. subtilis [1] = test: B. subtilis growth inhibition assay; format: cell-based, Bacillus subtilis; conditions: 12 hours at 37°C, OD600
SaUPPS = target: T1, SaUPPS (Staphylococcus aureus, UniProt P60477); test: biochemical; format: biochemical
T1 sequence (P60477 1-256): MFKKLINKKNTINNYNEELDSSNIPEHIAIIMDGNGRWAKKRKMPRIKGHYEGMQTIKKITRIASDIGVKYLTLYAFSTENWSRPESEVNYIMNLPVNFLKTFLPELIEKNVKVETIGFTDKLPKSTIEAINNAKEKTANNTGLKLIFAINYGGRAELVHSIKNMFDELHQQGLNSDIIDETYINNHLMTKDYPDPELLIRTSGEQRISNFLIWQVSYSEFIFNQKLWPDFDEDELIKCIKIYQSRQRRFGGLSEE

[2] = target: EcUPPP (fusion hybrid of E. coli UPPP with Haloarcula marismortui bacteriorhodopsin) (UniProt P60932+Q5UXY6, D94N); format: biochemical; conditions: read-out: IC50 EcUPPP
[3] = test system: Staphylococcus aureus and Bacillus subtilis; test: Bacterial cell growth inhibition, bacterium not specified at the place; format: cell-based
B. subtilis [4] = test: Synergy/antagonism two-drug combination assay, B. subtilis; format: cell-based, Bacillus subtilis; conditions: for FIC antibiotic / FIC Index / Mean FICI / FIC 7: B. subtilis; for FIC antibiotic: antibiotic in combination with 7, mean±SD duplicate; for FIC Index: combination of the antibiotic with 7, mean±SD; for MIC: Bacillus subtilis
S. aureus = test: Synergy/antagonism two-drug combination assay, S. aureus; format: cell-based, Staphylococcus aureus; conditions: for FIC antibiotic / FIC Index / Mean FICI / FIC 7: S. aureus; for FIC antibiotic: antibiotic in combination with 7, mean±SD duplicate; for FIC Index: combination of the antibiotic with 7, mean±SD; for MIC: Staphylococcus aureus
B. subtilis [5] = conditions: earlier work of the authors, no reference given; cited from earlier work
E. coli = conditions: earlier work of the authors, no reference given; cited from earlier work
E. coli UPPS (EcUPPS) = conditions: read-out: IC50 EcUPPS; previous work ref 3b; cited from earlier work
NCI-H460 cells = test: H460 cell toxicity; format: cell-based, human; conditions: 24 h, MTT
[6] = test system: S. aureus and B. subtilis; test: Synergy/antagonism assays, average over B. subtilis and S. aureus combinations; format: cell-based
[7] = 7 with inhibitors targeting cell wall biosynthesis
[8] = 7 with inhibitors targeting nucleic acids and protein biosynthesis

Chain of EcUPPP (fusion hybrid of E. coli UPPP with Haloarcula marismortui bacteriorhodopsin) (P60932 whole entry, looked up, the tested form may be a part): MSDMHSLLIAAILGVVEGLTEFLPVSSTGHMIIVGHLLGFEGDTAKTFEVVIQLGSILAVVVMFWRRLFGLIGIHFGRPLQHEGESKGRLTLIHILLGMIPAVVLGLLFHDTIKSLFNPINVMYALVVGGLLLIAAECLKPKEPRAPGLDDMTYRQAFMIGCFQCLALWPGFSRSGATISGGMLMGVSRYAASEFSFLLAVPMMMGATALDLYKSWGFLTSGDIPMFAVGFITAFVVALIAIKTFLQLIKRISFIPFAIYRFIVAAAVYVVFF
Chain of EcUPPP (fusion hybrid of E. coli UPPP with Haloarcula marismortui bacteriorhodopsin) (Q5UXY6 whole entry, looked up, stated change not applied, the tested form may be a part): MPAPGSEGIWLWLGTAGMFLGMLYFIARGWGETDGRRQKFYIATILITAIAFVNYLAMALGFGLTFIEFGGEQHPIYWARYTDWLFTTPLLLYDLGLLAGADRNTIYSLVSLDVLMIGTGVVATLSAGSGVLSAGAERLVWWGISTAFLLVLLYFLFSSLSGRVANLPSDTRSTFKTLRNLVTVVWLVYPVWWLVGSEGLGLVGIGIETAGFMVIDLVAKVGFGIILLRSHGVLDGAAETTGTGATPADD

## 2-(N-Methyl-3-(octyloxy)benzamido)phenylphosphonic acid [Compound 31]
B. subtilis [1]
  ED50 B. subtilis cell growth: >100 µg/mL
SaUPPS; read-out: IC50 SaUPPS, 5 μM FPP, 50 μM IPP, pH 7.5
  IC50: 39000 nM
[2]
  IC50: 6500 nM
[3]; S. aureus and B. subtilis cell growth
  antibacterial activity (in words): little or no antibacterial activity

## CC1(C)S[C@@H]2[C@H](NC(=O)[C@H](N)c3ccccc3)C(=O)N2[C@H]1C(=O)O [Ampicillin, ampicillin]
B. subtilis [4]
  FIC antibiotic: 0.30 ± 0.072
  FIC Index: 0.53 ± 0.11
B. subtilis [4]; 24 h, read-out: MIC antibiotic
  MIC: 0.5 µg/mL
S. aureus
  FIC antibiotic: 0.41 ± 0.17
  FIC Index: 0.56 ± 0.18
S. aureus; 24 h, read-out: MIC antibiotic
  MIC: 0.5 µg/mL

## CC1(C)S[C@@H]2[C@H](NC(=O)C(C(=O)O)c3ccccc3)C(=O)N2[C@H]1C(=O)O (some centres unmarked) [Carbenicillin, carbenicillin]
B. subtilis [4]
  FIC antibiotic: 0.22 ± 0.073
  FIC Index: 0.37 ± 0.10
B. subtilis [4]; 24 h, read-out: MIC antibiotic
  MIC: 5 µg/mL
S. aureus
  FIC antibiotic: 0.23 ± 0.048
  FIC Index: 0.30 ± 0.055
S. aureus; 24 h, read-out: MIC antibiotic
  MIC: 15 µg/mL

## CO/N=C(\C(=O)N[C@@H]1C(=O)N2C(C(=O)O)=C(COC(C)=O)CS[C@H]12)c1csc(N)n1 [Cefotaxime, cefotaxime]
B. subtilis [4]
  FIC antibiotic: 0.17 ± 0.026
  FIC Index: 0.31 ± 0.085
B. subtilis [4]; 24 h, read-out: MIC antibiotic
  MIC: 2.5 µg/mL
S. aureus
  FIC antibiotic: 0.18 ± 0.055
  FIC Index: 0.27 ± 0.063
S. aureus; 24 h, read-out: MIC antibiotic
  MIC: 2 µg/mL

## O=C(N[C@H](CO)[C@H](O)c1ccc([N+](=O)[O-])cc1)C(Cl)Cl [Chloramphenicol, chloramphenicol]
B. subtilis [4]
  FIC antibiotic: 0.75 ± 0.18
  FIC Index: 1.72 ± 0.46
B. subtilis [4]; 24 h, read-out: MIC antibiotic
  MIC: 0.5 µg/mL
S. aureus
  FIC antibiotic: 0.88 ± 0.47
  FIC Index: 1.69 ± 0.56
S. aureus; 24 h, read-out: MIC antibiotic
  MIC: 5 µg/mL

## CCCCCCCCCCOc1cccc(C(=O)Nc2ccc([N+](=O)[O-])cc2C(=O)O)c1 [Compound 6, 2-(3-(decyloxy)benzamido)-5-nitrobenzoic acid]
B. subtilis [5]
  ED50 against B. subtilis: 1300 nM
E. coli
  activity against E. coli (in words): no activity
E. coli UPPS (EcUPPS)
  IC50: 3000 nM

## CCCCCCCCOc1cccc(C(=O)Nc2ccc(F)cc2C(=O)O)c1 [Compound 7, 5-Fluoro-2-(3-(octyloxy)benzamido)benzoic acid]
B. subtilis [1]
  ED50 B. subtilis cell growth: 0.14 µg/mL (≈ 0.361 µM)
SaUPPS
  IC50: 320 nM
NCI-H460 cells
  toxicity against human cell line NCI-H460 (in words): low activity
B. subtilis [4]; [7]
  Mean FICI: 0.37 and 0.37 ± 0.14
B. subtilis [4]; [8]
  Mean FICI: 1.47 and 1.47 ± 0.28
B. subtilis [4]; with Ampicillin
  FIC 7: 0.23 ± 0.084
B. subtilis [4]; with Bacitracin
  FIC 7: 0.36 ± 0.14
B. subtilis [4]; with Carbenicillin
  FIC 7: 0.15 ± 0.071
B. subtilis [4]; with Cefotaxime
  FIC 7: 0.14 ± 0.081
B. subtilis [4]; with Chloramphenicol
  FIC 7: 0.97 ± 0.42
B. subtilis [4]; with Fosfomycin
  FIC 7: 0.063 ± 0.022
B. subtilis [4]; with Fosmidomycin
  FIC 7: 0.13 ± 0.056
B. subtilis [4]; with Kanamycin
  FIC 7: 0.71 ± 0.30
B. subtilis [4]; with Sulfamethoxazole
  FIC 7: 0.94 ± 0.64
B. subtilis [4]; with Tetracycline
  FIC 7: 0.57 ± 0.50
B. subtilis [4]; with Trimethoprim
  FIC 7: 0.85 ± 0.29
B. subtilis [4]; with Vancomycin
  FIC 7: 0.17 ± 0.063
B. subtilis [4]; read-out: MIC 7
  MIC: 1 µg/mL
S. aureus; [7]
  Mean FICI: 0.32 and 0.32 ± 0.12
S. aureus; [8]
  Mean FICI: 1.42 and 1.42 ± 0.37
S. aureus; with Ampicillin
  FIC 7: 0.15 ± 0.071
S. aureus; with Bacitracin
  FIC 7: 0.044 ± 0.019
S. aureus; with Carbenicillin
  FIC 7: 0.077 ± 0.026
S. aureus; with Cefotaxime
  FIC 7: 0.084 ± 0.031
S. aureus; with Chloramphenicol
  FIC 7: 0.81 ± 0.31
S. aureus; with Fosfomycin
  FIC 7: 0.091 ± 0.034
S. aureus; with Kanamycin
  FIC 7: 0.83 ± 0.29
S. aureus; with Spectinomycin
  FIC 7: 0.81 ± 0.32
S. aureus; with Sulfamethoxazole
  FIC 7: 0.98 ± 0.37
S. aureus; with Tetracycline
  FIC 7: 0.51 ± 0.24
S. aureus; with Trimethoprim
  FIC 7: 0.57 ± 0.25
S. aureus; with Vancomycin
  FIC 7: 0.15 ± 0.062
S. aureus; read-out: MIC 7
  MIC: 1 µg/mL
[6]; with known cell wall biosynthesis inhibitors, n=13 cell/inhibitor combinations
  FICI on average: ~ 0.35
[6]; with non cell-wall biosynthesis inhibitors, n=12 cell/inhibitor combinations
  FICI on average: ~ 1.45
[3]; abstract, bacterium not specified
  ED50 bacterial growth: ~ 0.15 μg/mL

## C[C@@H]1O[C@@H]1P(=O)(O)O [Fosfomycin, fosfomycin]
B. subtilis [4]
  FIC antibiotic: 0.16 ± 0.15
  FIC Index: 0.22 ± 0.15
B. subtilis [4]; 24 h, read-out: MIC antibiotic
  MIC: 200 µg/mL
S. aureus
  FIC antibiotic: 0.20 ± 0.11
S. aureus; 24 h, read-out: MIC antibiotic
  MIC: 200 µg/mL

## O=CN(O)CCCP(=O)(O)O [Fosmidomycin, fosmidomycin]
B. subtilis [4]
  FIC antibiotic: 0.039 ± 0.0053
  FIC Index: 0.17 ± 0.056
B. subtilis [4]; listed as fosmidomycin
  FIC Index: 0.17
B. subtilis [4]; 24 h, read-out: MIC antibiotic
  MIC: 5 µg/mL

## CN[C@@H]1[C@H](O)[C@H](NC)[C@H]2O[C@@]3(O)C(=O)C[C@@H](C)O[C@H]3O[C@@H]2[C@H]1O [Spectinomycin, spectinomycin]
S. aureus
  FIC antibiotic: 0.75 ± 0.43
  FIC Index: 1.56 ± 0.54
S. aureus; 24 h, read-out: MIC antibiotic
  MIC: 40 µg/mL

## Cc1cc(NS(=O)(=O)c2ccc(N)cc2)no1 [Sulfamethoxazole, sulfamethoxazole]
B. subtilis [4]
  FIC antibiotic: 0.78 ± 0.21
  FIC Index: 1.72 ± 0.67
B. subtilis [4]; listed as sulfamethoxazole
  FIC Index: 1.72
B. subtilis [4]; 24 h, read-out: MIC antibiotic
  MIC: 200 µg/mL
S. aureus
  FIC antibiotic: 0.54 ± 0.13
  FIC Index: 1.53 ± 0.39
S. aureus; 24 h, read-out: MIC antibiotic
  MIC: 200 µg/mL

## CN(C)[C@@H]1C(O)=C(C(N)=O)C(=O)[C@@]2(O)C(O)=C3C(=O)c4c(O)cccc4[C@@](C)(O)[C@H]3C[C@@H]12 [Tetracycline, tetracycline]
B. subtilis [4]
  FIC antibiotic: 0.48 ± 0.047
  FIC Index: 1.04 ± 0.50
B. subtilis [4]; 24 h, read-out: MIC antibiotic
  MIC: 5 µg/mL
S. aureus
  FIC antibiotic: 0.24 ± 0.11
  FIC Index: 0.75 ± 0.26
S. aureus; 24 h, read-out: MIC antibiotic
  MIC: 0.5 µg/mL

## COc1cc(Cc2cnc(N)nc2N)cc(OC)c1OC [Trimethoprim, trimethoprim]
B. subtilis [4]
  FIC antibiotic: 0.66 ± 0.13
  FIC Index: 1.51 ± 0.32
B. subtilis [4]; 24 h, read-out: MIC antibiotic
  MIC: 0.5 µg/mL
S. aureus
  FIC antibiotic: 0.69 ± 0.32
  FIC Index: 1.26 ± 0.41
S. aureus; 24 h, read-out: MIC antibiotic
  MIC: 15 µg/mL

## CN[C@H](CC(C)C)C(=O)N[C@H]1C(=O)N[C@@H](CC(N)=O)C(=O)N[C@H]2C(=O)N[C@H]3C(=O)N[C@H](C(=O)N[C@H](C(=O)O)c4cc(O)cc(O)c4-c4cc3ccc4O)[C@H](O)c3ccc(c(Cl)c3)Oc3cc2cc(c3O[C@@H]2O[C@H](CO)[C@@H](O)[C@H](O)[C@H]2O[C@H]2C[C@](C)(N)[C@H](O)[C@H](C)O2)Oc2ccc(cc2Cl)[C@H]1O [Vancomycin, vancomycin]
B. subtilis [4]
  FIC antibiotic: 0.27 ± 0.24
  FIC Index: 0.44 ± 0.25
B. subtilis [4]; 24 h, read-out: MIC antibiotic
  MIC: 0.5 µg/mL
S. aureus
  FIC antibiotic: 0.14 ± 0.034
  FIC Index: 0.29 ± 0.071
S. aureus; 24 h, read-out: MIC antibiotic
  MIC: 1.5 µg/mL
